Test results taken from patent publication US9545437B2, “Peptide vaccines for cancers expressing MPHOSPH1 or DEPDC1 polypeptides” (ONCOTHERAPY SCIENCE, INC., priority 2006, dated 2017).
Entries after “also recorded” stand apart in the source; their conditions may differ.

Experiments:
[1] = tested on: RT-4 cells; test: CTL activity against bladder cancer cell line RT-4; assay type: cell-based; details: RT-4 express the antigen but not HLA-A24; listed as DEPDC1-A24-9-294
[2] = tested on: BALB/c mice (H-2Kd); test: Immunogenicity of epitope peptides in BALB/c mice (splenocyte IFN-gamma ELISPOT); assay type: in vivo, mouse; details: IFA-conjugated peptide s.c. days 0 and 7, splenocytes day 14, compared with IFA alone
Protocol: For induction of the peptide-specific CTLs, immunization was given using […] of vaccine mixture, which contains 50 mcl (100 mcg) of HLA-A24 restricted peptide and 50 mcl of IFA per mouse. The vaccine was subcutaneously injected in the right flank for the first immunization on day 0 and in the left flank for the second on the day 7. On day 14, splenocytes of the vaccinated mice, without any in vitro stimulation, were used responder cells, and RLmale1 cells pulsed with or without peptides were used as the stimulator cells for IFN-gamma ELISPOT assay.

[3] = tested on: bladder cancer patients with HLA-A*2402; test: Clinical trial of epitope peptide vaccination in bladder cancer patients; assay type: in vivo, human; details: for specific CTL response after vaccination: Case 3
Protocol: The synthesized GMP grade peptides were purchased from Neo Multi Peptide System (MPS) (San Diego, Calif.). As an adjuvant, incomplete Freund's adjuvant (IFA) (MONTANIDE *ISA51) were used. 1 mg of the appropriate peptide was emulsioned with […].
Enrolled bladder cancer patients with HLA-A*2402, whose tumors express M phase phosphoprotein 1 (MPHOSPH1) and/or DEP domain containing 1 (DEPDC1) were immunized with HLA-A*2402-restricted epitope peptides, MPHOSPH1-9-278 (IYNEYIYDL (SEQ ID NO: 7)) and/or DEPDC1-9-294 (EYYELFVNI (SEQ ID NO: 12)). Each peptide was combined with 1 mL of incomplete Freund's adjuvant (IFA, MONTANIDE *ISA51) and was subcutaneously injected into axillary or inguinal lesion once a week. Four times injection is defined as one course, then after 1 course for immunological and clinical evaluation, blood was drawn and CT/MRI was performed.
Evaluation of adverse effect was performed along with National Cancer Institute-Common Toxicity Criteria version 3, (NCI-CTC ver.3).
Peripheral blood mononuclear cells were collected, and re-stimulated by the appropriate peptides. CTL response was tested on the 14th day by IFN-g ELISPOT assay.
Evaluation of clinical response was performed in accordance with RECIST criteria.

[4] = tested on: J82 cells; test: CTL activity against bladder cancer cell line J82; assay type: cell-based; details: J82 express the antigen but not HLA-A24; listed as DEPDC1-A24-9-294

Sequence: EYYELFVNI [SEQ ID NO: 12]
- CTL activity of the CTL clone raised by the peptide [1]: did not show significant CTL activity; also recorded: no showing response
- IFN-gamma production of splenocytes of vaccinated mice (ELISPOT) [2]: potent IFN-gamma production
- progression rate of metastatic tumor ([3]; Case 3, lung metastases, after vaccination): decreased
- specific CTL response after vaccination ([3]; listed as DEPDC1 derived peptide): clearly shown
- specific CTL response after vaccination ([3]; listed as epitope peptide derived from DEPDC1): strongly shown
- clinical response ([3]; single cases, RECIST criteria): minor response
- CTL activity of the CTL clone raised by the peptide [4]: did not show significant CTL activity; also recorded: no showing response
